The text below walks through data of patent publication US11066414B2, “Cot modulators and methods of use thereof” (Gilead Sciences, Inc., priority 2015, dated 2021).

For one experiment, the system named is TNFα. Kind of experiment: Cot Monocyte TNFα Cell Based Assay. Particulars: Homo sapiens, Monocyte, read-out: EC50 TNF, LPS-stimulated human monocytes, TNFα.
The next experiment addresses Human Cot (Homo sapiens (Human), UniProt P41279). The experiment can be described thus: High Throughput Cot Biochemical Assay. The following applies: IC50 HTRF, Cot HTRF (TR-FRET) biochemical assay.

pEC50, pIC50: −log10 of the molar value.

Human Cot, sequence (P41279 30-397): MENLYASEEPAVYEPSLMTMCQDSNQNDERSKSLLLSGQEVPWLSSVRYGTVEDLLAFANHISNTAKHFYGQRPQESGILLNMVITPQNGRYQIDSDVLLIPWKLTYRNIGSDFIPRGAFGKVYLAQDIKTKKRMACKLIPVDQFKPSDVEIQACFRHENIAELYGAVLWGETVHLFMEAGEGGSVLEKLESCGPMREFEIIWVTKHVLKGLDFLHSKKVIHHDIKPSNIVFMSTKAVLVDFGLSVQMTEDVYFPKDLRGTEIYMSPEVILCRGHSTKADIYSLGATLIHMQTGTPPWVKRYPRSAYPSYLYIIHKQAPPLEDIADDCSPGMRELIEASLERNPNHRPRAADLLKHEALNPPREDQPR
Description for Human Cot: Human Cot enzyme activity was measured using KinEASE (Cisbio), a time-resolved fluorescence resonance energy transfer (TR-FRET) immunoassay. In this assay, Cot-catalyzes the phosporylation of a XL665-labeled peptide substrate. Europium conjugated phospho-tyrosine specific antibody binds the resulting phosphorylated peptide. Formation of phosphorylated peptide is quantified by TR-FRET with Europium as the donor and XL665 the acceptor in a 2-step endpoint assay. […] In brief, test compounds serially diluted in DMSO were delivered into Proxy white, low volume, 384 well plates using the Echo 550 acoustic liquid dispenser (Labcyte®). Cot enzyme and substrates were dispensed into assay plates using a Multi-Flo (Bio-Tek Instruments). The standard 5 μL reaction mixture contained 400 μM ATP, 1 μM STK3 peptide, 5 nM of Cot in reaction buffer (10 mM MOPS, pH 7.0, 0.02% NaN3, 0.5 mg/mL BSA, 10 mM MgOAc, 1 mM DTT, 0.025% NP-40, 1.5% glycerol) and 0.1% DMSO.

As to `CC(C)(C)CNc1c(C#N)cnc2c(C#N)cc(N[C@H](c3cn(C4(C5CC5)CC4)nn3)c3cccc4cnccc34)cc12` [Example 703, (S)-6-(((1-([1,1′-bi(cyclopropan)]-1-yl)-1H-1,2,3-triazol-4-yl)(isoquinolin-5-yl)methyl)amino)-4-(neopentylamino)quinoline-3,8-dicarbonitrile], in the experiment on TNFα, the pEC50 was 7.66. For the same molecule, the pIC50 against Human Cot is 8.70.
As to `Cc1nc(F)ccc1[C@H](Nc1cc(Cl)c2ncc(C#N)c(NCC(C)(C)C)c2c1)c1nnn(C2(C(F)F)CC2)c1I` [Example 707, (S)-8-chloro-6-(((1-(1-(difluoromethyl)cyclopropyl)-5-iodo-1H-1,2,3-triazol-4-yl)(6-fluoro-2-methylpyridin-3-yl)methyl)amino)-4-(neopentylamino)quinoline-3-carbonitrile], the pEC50 in the experiment with TNFα was 6.64. The pIC50 at Human Cot was 7.80.
On the same counts, the results for `CC(C)(C)CNc1c(C#N)cnc2c(C#N)cc(N[C@@H](c3ccc4cccnc4c3)c3cn(C4(C(F)F)CC4)nn3)cc12` [Example 708, (S)-6-(((1-(1-(difluoromethyl)cyclopropyl)-1H-1,2,3-triazol-4-yl)(quinolin-7-yl)methyl)amino)-4-(neopentylamino)quinoline-3,8-dicarbonitrile] are 6.75 and 8.22.
Take `CC(C)(C)CNc1c(C#N)cnc2c(Cl)cc(N[C@H](c3cn(C4(C(F)(F)F)CC4)nn3)c3ccc(Cl)c4ncccc34)cc12` [Example 709, (S)-8-chloro-6-(((8-chloroquinolin-5-yl)(1-(1-(trifluoromethyl)cyclopropyl)-1H-1,2,3-triazol-4-yl)methyl)amino)-4-(neopentylamino)quinoline-3-carbonitrile]: the pEC50 in the experiment with TNFα is 6.73. At Human Cot, this molecule had a pIC50 of 7.77.
As to `CC(C)(C)CNc1c(C#N)cnc2c(C#N)cc(N[C@H](c3cn(C4(C(F)(F)F)CC4)nn3)c3ccc(C#N)c4ncccc34)cc12` [Example 710, (S)-6-(((8-cyanoquinolin-5-yl)(1-(1-(trifluoromethyl)cyclopropyl)-1H-1,2,3-triazol-4-yl)methyl)amino)-4-(neopentylamino)quinoline-3,8-dicarbonitrile], the pEC50 in the experiment on TNFα is 6.83. The same molecule gave a pIC50 at Human Cot of 8.30.
For `[2H]C([2H])([2H])n1ccc2c([C@H](Nc3cc(Cl)c4ncc(C#N)c(NCC(C)(C)C)c4c3)c3cn(C45CC(C4)C5)nn3)cccc2c1=O` [Example 711, (S)-6-(((1-(bicyclo[1.1.1]pentan-1-yl)-1H-1,2,3-triazol-4-yl)(2-(methyl-d3)-1-oxo-1,2-dihydroisoquinolin-5-yl)methyl)amino)-8-chloro-4-(neopentylamino)quinoline-3-carbonitrile], the pEC50 with TNFα is 7.49. In addition, the pIC50 against Human Cot was 8.70.
The like results for `Cn1ccc2c([C@H](Nc3cc(Cl)c4ncc(C#N)c(NCC(C)(C)C)c4c3)c3cn(C45CC(C4)C5)nn3)cccc2c1=O` [Example 713, (S)-6-(((1-(bicyclo[1.1.1]pentan-1-yl)-1H-1,2,3-triazol-4-yl)(2-methyl-1-oxo-1,2-dihydroisoquinolin-5-yl)methyl)amino)-8-chloro-4-(neopentylamino)quinoline-3-carbonitrile] were, in that order, 7.68 and 8.70.
With `Cn1ccc2c([C@H](Nc3cc(Cl)c4ncc(C#N)c(NCC(C)(C)C)c4c3)c3cn(C4CCN(C(C)(C)C)CC4)nn3)cccc2c1=O` [Example 714, (S)-6-(((1-(1-(tert-butyl)piperidin-4-yl)-1H-1,2,3-triazol-4-yl)(2-methyl-1-oxo-1,2-dihydroisoquinolin-5-yl)methyl)amino)-8-chloro-4-(neopentylamino)quinoline-3-carbonitrile], in the experiment on TNFα, the pEC50 is 7.24. For the same molecule, the pIC50 against Human Cot is 8.22.
`Cc1nc(F)ccc1[C@H](Nc1cc(Cl)c2ncc(C#N)c(NCC(C)(C)C(F)(F)F)c2c1)c1cn(C(C)(C)C)nn1` [Example 715, (S)-6-(((1-(tert-butyl)-1H-1,2,3-triazol-4-yl)(6-fluoro-2-methylpyridin-3-yl)methyl)amino)-8-chloro-4-((3,3,3-trifluoro-2,2-dimethylpropyl)amino)quinoline-3-carbonitrile]: the pEC50 in the experiment with TNFα was 7.04. The pIC50 against Human Cot was 8.52.
For `Cc1nc(F)ccc1[C@H](Nc1cc(Cl)c2ncc(C#N)c(NCC(C)(C)C)c2c1)c1cn(C2CC2)nn1` [Example 716, (S)-8-chloro-6-(((1-cyclopropyl-1H-1,2,3-triazol-4-yl)(6-fluoro-2-methylpyridin-3-yl)methyl)amino)-4-(neopentylamino)quinoline-3-carbonitrile], in the experiment with TNFα, the pEC50 was 7.27. The pIC50 at Human Cot was 8.70.
Regarding `Cc1ccc([C@H](Nc2cc(Cl)c3ncc(C#N)c(NCC(C)(C)C)c3c2)c2cn(C3(C(F)F)CC3)nn2)c(C)n1` [Example 717, (S)-8-chloro-6-(((1-(1-(difluoromethyl)cyclopropyl)-1H-1,2,3-triazol-4-yl)(2,6-dimethylpyridin-3-yl)methyl)amino)-4-(neopentylamino)quinoline-3-carbonitrile], the pEC50 in the experiment on TNFα was 7.00. In addition, at Human Cot, the pIC50 was 8.10.
`Cc1nc(Cl)ccc1[C@H](Nc1cc(Cl)c2ncc(C#N)c(NCC(C)(C)C)c2c1)c1cn(C2(C(F)F)CC2)nn1` [Example 718, (S)-8-chloro-6-(((6-chloro-2-methylpyridin-3-yl)(1-(1-(difluoromethyl)cyclopropyl)-1H-1,2,3-triazol-4-yl)methyl)amino)-4-(neopentylamino)quinoline-3-carbonitrile]: in the experiment with TNFα, the negative-log EC50 (pEC50) was 6.95. Further, on Human Cot, the pIC50 was 8.05.
With `Cc1nc(F)ccc1[C@H](Nc1cc(Cl)c2ncc(C#N)c(NCC(C)(C)C(F)(F)F)c2c1)c1cn(C23CC(C2)C3)nn1` [Example 719, (S)-6-(((1-(bicyclo[1.1.1]pentan-1-yl)-1H-1,2,3-triazol-4-yl)(6-fluoro-2-methylpyridin-3-yl)methyl)amino)-8-chloro-4-((3,3,3-trifluoro-2,2-dimethylpropyl)amino)quinoline-3-carbonitrile], the pEC50 in the experiment with TNFα is 7.62. On Human Cot, this molecule showed a pIC50 of 8.70.
Turning to `Cc1nc(F)ccc1[C@H](Nc1cc(Cl)c2ncc(C#N)c(NCC(C)(C)C(F)(F)F)c2c1)c1cn(C2(C)CC2)nn1` [Example 720, (S)-8-chloro-6-(((6-fluoro-2-methylpyridin-3-yl)(1-(1-methylcyclopropyl)-1H-1,2,3-triazol-4-yl)methyl)amino)-4-((3,3,3-trifluoro-2,2-dimethylpropyl)amino)-quinoline-3-carbonitrile], the pEC50 in the experiment with TNFα was 7.46. The pIC50 at Human Cot is 8.70.
Consider `Cc1nc(F)ccc1[C@H](Nc1cc(Cl)c2ncc(C#N)c(NCC(C)(C)C(F)(F)F)c2c1)c1cn(C2(C(F)(F)F)CC2)nn1` [Example 721, (S)-8-chloro-6-(((6-fluoro-2-methylpyridin-3-yl)(1-(1-(trifluoromethyl)cyclopropyl)-1H-1,2,3-triazol-4-yl)methyl)amino)-4-((3,3,3-trifluoro-2,2-dimethylpropyl)amino)quinoline-3-carbonitrile], for which, in the experiment with TNFα, the negative logarithm of the EC50 (pEC50) is 6.96. At Human Cot, this molecule gave a pIC50 of 8.22.
The like results for `Cc1nc(F)ccc1[C@H](Nc1cc(Cl)c2ncc(C#N)c(NCC(C)(C)S(C)(=O)=O)c2c1)c1cn(C2(C(F)(F)F)CC2)nn1` [Example 722, (S)-8-chloro-6-(((6-fluoro-2-methylpyridin-3-yl)(1-(1-(trifluoromethyl)-cyclopropyl)-1H-1,2,3-triazol-4-yl)methyl)amino) -4-((2-methyl-2-(methylsulfonyl)propyl)amino)-quinoline-3-carbonitrile] were, in that order, 6.39 and 7.37.
For the molecule `CC[C@@H](Nc1c(C#N)cnc2c(Cl)cc(N[C@H](c3cn(C4(C(F)F)CC4)nn3)c3ccc(F)nc3C)cc12)c1ccccc1` [Example 723, 8-chloro-6-(((S)-(1-(1-(difluoromethyl)cyclopropyl)-1H-1,2,3-triazol-4-yl)(6-fluoro-2-methylpyridin-3-yl)methyl)amino)-4-(((R)-1-phenyl-propyl)amino)quinoline-3-carbonitrile], in the experiment on TNFα, the pEC50 was 7.08. The molecule also had a pIC50 at Human Cot of 8.40.
On the same counts, the results for `Cn1ccc2c([C@H](Nc3cc(Cl)c4ncc(C#N)c(NCC(C)(C)C(F)(F)F)c4c3)c3cn(C4(C(F)F)CC4)nn3)cccc2c1=O` [Example 724, (S)-8-chloro-6-(((1-(1-(difluoromethyl)cyclopropyl)-1H-1,2,3-triazol-4-yl)(2-methyl-1-oxo-1,2-dihydroisoquinolin-5-yl)methyl)amino)-4-((3,3,3-trifluoro-2,2-dimethylpropyl)amino)quinoline-3-carbonitrile] are 7.36 and 8.52.
Take `CC(C)(CNc1c(C#N)cnc2c(Cl)cc(N[C@H](c3cn(C4(C(F)F)CC4)nn3)c3cccc4c(=O)[nH]ccc34)cc12)C(F)(F)F` [Example 726, (S)-8-chloro-6-(((1-(1-(difluoromethyl)cyclopropyl)-1H-1,2,3-triazol-4-yl)(1-oxo-1,2-dihydroisoquinolin-5-yl)methyl)amino)-4-((3,3,3-trifluoro-2,2-dimethylpropyl)amino)quinoline-3-carbonitrile]: the pEC50 in the experiment with TNFα was 6.90. At Human Cot, this molecule had a pIC50 of 8.40.
Take `Cc1nc(F)ccc1[C@H](Nc1cc(Cl)c2ncc(C#N)c(NCC(C)(C)C(F)(F)F)c2c1)c1cn(C2(C(F)F)CC2)nn1` [Example 727, (S)-8-chloro-6-(((1-(1-(difluoromethyl)cyclopropyl)-1H-1,2,3-triazol-4-yl)(6-fluoro-2-methylpyridin-3-yl)methyl)amino)-4-((3,3,3-trifluoro-2,2-dimethylpropyl)amino)quinoline-3-carbonitrile]: the pEC50 in the experiment with TNFα was 7.32. For the same molecule, the pIC50 against Human Cot was 8.52.
The like results for `Cn1cnc2c([C@H](Nc3cc(Cl)c4ncc(C#N)c(NCC(C)(C)C)c4c3)c3cn(C45CC(C4)C5)nn3)cccc2c1=O` [Example 728, (S)-6-(((1-(bicyclo[1.1.1]pentan-1-yl)-1H-1,2,3-triazol-4-yl)(3-methyl-4-oxo-3,4-dihydroquinazolin-8-yl)methyl)amino)-8-chloro-4-(neopentylamino)quinoline-3-carbonitrile] were, in that order, 6.81 and 8.15.
